Reference: ChEMBL document CHEMBL3608235, “Pyrroloaryls and pyrroloheteroaryls: Inhibitors of the HIV fusion/attachment, reverse transcriptase and integrase” (Bioorg Med Chem, 2015)
pEC50, pIC50: −log10 of the molar value.

Assays:
[1] = Cytotoxicity against mock-infected human MT4 cells assessed as reduction in cell viability; type: cell-based
[2] = system: Human immunodeficiency virus 1; experiment: Antiviral activity against HIV1 infected in human MT4 cells assessed as reduction in virus-induced cytopathogenicity; type: functional, organism-based; conditions: Human immunodeficiency virus 1, MT4
[3] = target: Human immunodeficiency virus type 1 reverse transcriptase (Human immunodeficiency virus 1, UniProt Q72547); experiment: Inhibition of HIV1 reverse transcriptase
[4] = Selectivity index, ratio of CC50 for mock-infected human MT4 cells to EC50 for HIV1 infected in human MT4 cells; type: toxicity, cell-based; conditions: MT4 cells (mock-infected and HIV1-infected), read-out: Ratio CC50/EC50
[5] = system: Human immunodeficiency virus 2; experiment: Antiviral activity against HIV2 ROD; type: functional, organism-based; conditions: Human immunodeficiency virus 2, ISOLATE ROD
[6] = system: Human immunodeficiency virus; experiment: Antiviral activity against HIV by XTT assay; type: functional, organism-based; conditions: Human immunodeficiency virus 1

pEC50 [2]	pEC50 [5]	Compound	CC50 [1] [µM]	selectivity ratio [4]	other results
5.19	–	C=CCC1(c2ccccc2)Sc2ccccc2-n2cccc2C1=O (stereo not drawn)	25	9	pIC50 [3]: 6.15
–	–	O=C(NNc1nc2ccccc2n2cccc12)c1cnccn1	–	–	pIC50 [3]: 4.72
–	< 3.82	O=C1N(Cc2cccc(Cl)c2)c2cccn2S(=O)(=O)N1Cc1cccc(Cl)c1	–	–	–
7.00	–	CC(C)c1c(COC(N)=O)cn(Cc2ccncc2)c1Sc1cc(F)cc(F)c1	> 200	2000	–
–	< 3.82	N#Cc1ccccc1CN1C(=O)N(Cc2cccc(Cl)c2)S(=O)(=O)n2cccc21	–	–	–
–	–	CCCCCC(=O)NC1=NN(C)c2ncnc3c2c1cn3[C@@H]1O[C@H](CO)[C@@H](O)[C@H]1O	–	–	pIC50 [6]: 6.46
–	–	CCCCC(=O)NC1=NN(C)c2ncnc3c2c1cn3[C@@H]1O[C@H](CO)[C@@H](O)[C@H]1O	–	–	pIC50 [6]: 6.10
5.80	–	CN1C(=S)c2cn(C)cc2S(=O)(=O)c2cc(Cl)ccc21	–	–	–
–	< 3.82	O=C1N(Cc2cccc(Cl)c2)c2cccn2S(=O)(=O)N1Cc1ccccc1	–	–	–
–	< 3.82	N#CCN1C(=O)N(Cc2cccc(Br)c2)S(=O)(=O)n2cccc21	–	–	–
–	< 3.82	O=C1N(Cc2ccccc2Br)c2cccn2S(=O)(=O)N1Cc1cccc(Br)c1	–	–	–
–	< 3.82	O=C1N(Cc2ccccc2)c2cccn2S(=O)(=O)N1Cc1ccccc1	–	–	–
5.39	–	C/C=C/CN1C(=O)c2cccn2S(=O)(=O)c2cc(Cl)ccc21	> 300	> 73	pIC50 [3]: 5.51
5.46	–	CC(C)N1C(=O)c2cccn2S(=O)(=O)c2ccccc21	> 100	–	pIC50 [3]: 5.40
–	< 3.82	O=C1N(Cc2ccccc2)c2cccn2S(=O)(=O)N1Cc1cccc(Br)c1	–	–	–
–	–	CCCCCCCCCC(=O)NC1=NN(C)c2ncnc3c2c1cn3[C@@H]1O[C@H](CO)[C@@H](O)[C@H]1O	–	–	pIC50 [6]: < 4.00
–	–	CC(C)=CCn1cc2c(c1)S(=O)(=O)c1cc(Cl)ccc1NC2=O	68	226	–
–	< 3.82	O=C1N(Cc2ccccc2Br)c2cccn2S(=O)(=O)N1Cc1ccccc1	–	–	–
7.52	–	CC(C)c1c(CO)cn(Cc2ccncc2)c1Sc1cc(Cl)cc(Cl)c1	> 200	> 6670	–
6.30	–	CN1C(=O)c2cccn2S(=O)(=O)c2cc(Cl)ccc21	> 300	> 600	pIC50 [3]: 6.30
5.66	–	O=C1Nc2ccc(Cl)cc2S(=O)(=O)c2cn(CC3CC3)cc21	–	–	–

pEC50 [2]	pEC50 [5]	Compound	CC50 [1] [µM]	selectivity ratio [4]	other results
–	–	CCCCCCCC(=O)NC1=NN(C)c2ncnc3c2c1cn3[C@@H]1O[C@H](CO)[C@@H](O)[C@H]1O	–	–	pIC50 [6]: < 4.00
5.43	–	C=CCN1C(=O)c2cccn2S(=O)(=O)c2cc(Cl)ccc21	> 300	> 81	pIC50 [3]: 5.54
–	< 3.82	N#CCN1C(=O)N(Cc2ccccc2)S(=O)(=O)n2cccc21	–	–	–
–	< 3.82	CC(C)=CCN1C(=O)N(Cc2ccccc2)S(=O)(=O)n2cccc21	–	–	–
6.92	–	CC(C)c1c(COC(N)=O)cn(Cc2ccncc2)c1Sc1cc(Cl)cc(Cl)c1	> 200	> 1670	–
–	< 3.82	O=C1N(Cc2ccccc2)c2cccn2S(=O)(=O)N1Cc1cccc(Cl)c1	–	–	–
–	< 3.82	O=C1N(Cc2ccccc2Br)c2cccn2S(=O)(=O)N1Cc1cccc(F)c1	–	–	–
5.31	–	CCC1(c2ccccc2)Sc2ccccc2-n2cccc2C1=O (stereo not drawn)	0.25	9	pIC50 [3]: 6.33
7.00	–	CC(C)c1c(COC(N)=O)cn(Cc2ccc(N)cc2)c1Sc1cc(Cl)cc(Cl)c1	> 200	2000	–
5.62	–	CCN1C(=O)c2cccn2S(=O)(=O)c2cc(Cl)ccc21	> 300	118	pIC50 [3]: 5.57
–	< 3.82	O=C1N(Cc2ccccc2)c2cccn2S(=O)(=O)N1Cc1cccc(F)c1	–	–	–
6.00	–	O=C1Nc2ccc(Cl)cc2S(=O)(=O)n2cccc21	> 300	> 300	pIC50 [3]: 6.15
–	< 3.82	N#Cc1ccccc1CN1C(=O)N(Cc2cccc(Br)c2)S(=O)(=O)n2cccc21	–	–	–
4.34	–	CCC1(CC=C(C)C)Sc2ccccc2-n2cccc2C1=O (stereo not drawn)	0.3	9	pIC50 [3]: 5.87
–	< 3.82	N#CCN1C(=O)N(Cc2cccc(Cl)c2)S(=O)(=O)n2cccc21	–	–	–
–	< 3.82	N#CCN1C(=O)N(Cc2cccc(F)c2)S(=O)(=O)n2cccc21	–	–	–
–	< 3.82	O=C1N(Cc2ccccc2Br)c2cccn2S(=O)(=O)N1Cc1cccc(Cl)c1	–	–	–
–	< 3.82	O=C1N(Cc2cccc(Cl)c2)c2cccn2S(=O)(=O)N1Cc1cccc(Br)c1	–	–	–
–	< 3.82	CC(C)=CCN1C(=O)N(Cc2cccc(Cl)c2)S(=O)(=O)n2cccc21	–	–	–
6.15	–	CC(C)=CCn1cc2c(c1)S(=O)(=O)c1cc(Cl)ccc1NC2=S	–	–	–
6.82	–	Cc1cc(C)cc(Sc2c(C(C)C)c(COC(N)=O)cn2Cc2ccncc2)c1	> 200	1330	–

pEC50 [2]	pEC50 [5]	Compound	CC50 [1] [µM]	selectivity ratio [4]	other results
5.66	–	CSCn1cc2c(c1)S(=O)(=O)c1cc(Cl)ccc1NC2=O	–	–	–
5.09	–	O=S1(=O)c2cc(Cl)ccc2NC(=S)c2c[nH]cc21	–	–	–
–	< 3.82	N#Cc1cccc(CN2C(=O)N(Cc3cccc(F)c3)S(=O)(=O)n3cccc32)c1	–	–	–
5.12	–	Cn1cc2c(c1)S(=O)(=O)c1cc(Cl)ccc1NC2=S	–	–	–
7.30	–	CC(C)c1c(CO)cn(Cc2ccncc2)c1Sc1cccc(F)c1	71	1420	–
5.46	–	O=C1Nc2ccccc2S(=O)(=O)n2cccc21	> 100	–	pIC50 [3]: 5.40
4.43	–	CCC1(c2ccc3ccccc3c2)Sc2ccccc2-n2cccc2C1=O (stereo not drawn)	0.5	9	pIC50 [3]: 6.07
5.46	–	CCN1C(=O)c2cccn2S(=O)(=O)c2ccccc21	> 100	–	pIC50 [3]: 5.40
5.46	–	CCN1C(=O)c2cccn2S(=O)(=O)c2ccc(Cl)cc21	> 100	–	pIC50 [3]: 5.40
–	< 3.82	N#Cc1cccc(CN2C(=O)N(Cc3cccc(Cl)c3)S(=O)(=O)n3cccc32)c1	–	–	–
–	< 3.82	N#Cc1cccc(CN2C(=O)N(Cc3cccc(Br)c3)S(=O)(=O)n3cccc32)c1	–	–	–
6.92	–	Cc1cccc(Sc2c(C(C)C)c(COC(N)=O)cn2Cc2ccncc2)c1	> 200	1670	–
5.16	–	CC1(c2ccccc2)Sc2ccccc2-n2cccc2C1=O (stereo not drawn)	10	9	pIC50 [3]: 6.46
–	< 3.82	CC(C)=CCN1C(=O)N(Cc2cccc(F)c2)S(=O)(=O)n2cccc21	–	–	–
8.10	–	Cc1cccc(Sc2c(C(C)C)c(CO)cn2Cc2ccncc2)c1	50	3250	–
6.70	–	CC(C)c1c(COC(N)=O)cn(Cc2ccncc2)c1Sc1cccc(F)c1	> 200	1000	–
5.46	–	CN1C(=O)c2cccn2S(=O)(=O)c2ccccc21	> 100	–	pIC50 [3]: 5.40
–	< 3.82	CC(C)=CCN1C(=O)N(Cc2cccc(Br)c2)S(=O)(=O)n2cccc21	–	–	–
–	< 3.82	O=C1N(Cc2ccccc2Cl)c2cccn2S(=O)(=O)N1Cc1ccccc1	–	–	–
5.46	–	C=CCN1C(=O)c2cccn2S(=O)(=O)c2ccccc21	> 100	–	pIC50 [3]: 5.40
